Results reported in US20190010547A1 (Medizinische Universität Innsbruck, priority 2015, published 2019).
“Also recorded” adds a separate entry of the source.

What was measured:
hepatitis C virus = settings: 36 patients with chronic hepatitis C genotype 1 infection, Phase 2a (Janssen, N Engl J Med 2013); cited from earlier work
serum miR-122 [1] = test: Statin treatment of mice: serum miR-122; settings: C57BI/6 mice, 20 mg/kg atorvastatin intraperitoneally once a day for five days
serum miR-122 [2] = settings: ASCOT participants (n=155), atorvastatin 10 mg/day vs placebo, baseline vs 1 year
[3] = ASCOT participants, atorvastatin 10 mg/day vs placebo, baseline vs 1 year
[4] = system: genes implicated in cholesterol and lipid metabolism (ACC1, CTP1, FAS, SCD1, MTTP, SREBP1); test: AntagomiR treatment of mice: liver expression of genes implicated in cholesterol and lipid metabolism (qRT-PCR); type: in vivo; settings: mouse liver mRNA, antagomiR-122 65 mg/kg i.p. x3 days, day 7
Experimental: (§1) Liver and serum samples were harvested for analysis.
(§2) Total RNA was isolated from liver and hepatocyte samples using TRIzol reagent (Invitrogen) according to the manufacturer's protocol. For mRNA quantification, cDNA was synthesized using iScript RT Supermix (Bio-Rad), following the manufacturer's protocol. qRT-PCR analysis was performed in triplicate using iQ SYBR green Supermix (BioRad) on an iCycler Real-Time Detection System (Eppendorf). The mRNA level was normalized to GAPDH or 18S as a house keeping gene (see primer sequence in Table 2). For miRNA quantification, total RNA was reverse transcribed using the miScript II RT Kit (Qiagen). […] For mouse tissues, total liver RNA from WT mice fed a HFD were isolated using the Bullet Blender Homogenizer (Next Advance) in TRIzol. 1 μg of total RNA was reverse transcribed and gene/miRNA expression assessed as above.

miR-33 = test: AntagomiR treatment of mice: hepatic miR-33 expression; type: in vivo; settings: mouse liver, antagomiR-122 vs control antagomiRs, 65 mg/kg i.p. x3 days, day 7
Experimental: as §1, §2

[5] = AntagomiR treatment of mice: serum cholesterol; type: in vivo; settings: antagomiR-122 vs control antagomiRs, 65 mg/kg i.p. x3 days, day 7
Experimental: as §1
Blood samples were collected by retro-orbital venous plexus puncture after a 12 h overnight fast for lipid analysis. Plasma was separated by centrifugation and stored at 4° C. Total and HDL cholesterol in each sample was enzymatically measured using the T-Cholesterol and HDL-C Assay Kits (Wako Diagnostics).

miR-122 = test: AntagomiR treatment of mice: liver miR-122 by Northern blotting and quantitative PCR; type: in vivo; settings: mouse liver
Experimental: as §1
MiRNA expression was assessed by Northern blot analysis as previously described (Suárez, Circ Res 2007, 100: 1164-73). Briefly, total RNA (5 μg) was separated on a 15% acrylamide TBE 8M urea gel and blotted onto a Hybond N+ nylon filter (Amersham Biosciences). […] ATP and […] polynucleotide kinase (New England Biolabs) to generate high-specific activity probes. Hybridization was carried out according to the ExpressHyb (Clontech) protocol. Following overnight membrane hybridization with specific radiolabeled probes, membranes were washed once for 30 min at 42° C. in 4×SSC/0:5% SDS and subjected to autoradiography. Blots were re-probed for 5S rRNA to control for equal loading: 5′-[…]-3′
Total RNA was isolated from liver and hepatocyte samples using TRIzol reagent (Invitrogen) according to the manufacturer's protocol. For mRNA quantification, cDNA was synthesized using iScript RT Supermix (Bio-Rad), following the manufacturer's protocol. qRT-PCR analysis was performed in triplicate using iQ SYBR green Supermix (BioRad) on an iCycler Real-Time Detection System (Eppendorf). […] For miRNA quantification, total RNA was reverse transcribed using the miScript II RT Kit (Qiagen). […] 1 μg of total RNA was reverse transcribed and gene/miRNA expression assessed as above.

Compound: miravirsen
- hepatitis C virus RNA levels (hepatitis C virus): reduced hepatitis C virus RNA levels in a dose-dependent manner

Compound: CC(C)c1c(C(=O)Nc2ccccc2)c(-c2ccccc2)c(-c2ccc(F)cc2)n1CC[C@@H](O)C[C@@H](O)CC(=O)O [atorvastatin]
- serum miR-122 (serum miR-122 [1]): reduction of miR-122; also recorded: reduced serum miR-122
- serum miR-122 levels (serum miR-122 [2]): reduced circulating miR-122 levels; also recorded: concordant reduction
- total cholesterol [3]: concordant reduction

Compound: C*A*AACACCAUUGUCACACU*C*C*A*Chol*-T [antagomiR-122]
- expression of genes implicated in lipid metabolism (de novo lipogenesis and lipoprotein assembly) [4]: down-regulation of enzymes implicated in lipid metabolism
- hepatic expression of miR-33 (miR-33): attenuated; also recorded: reduction of miR-33
- serum cholesterol concentration [5]: lower cholesterol levels; also recorded: reduction in serum cholesterol concentration
- liver miR-122 expression (miR-122; Northern blotting / qPCR, 65 mg/kg i.p. on three consecutive days, day 7, n=5 per group, 65 mg/kg): almost complete inhibition of miR-122 expression; also recorded: reduction of liver miR-122
- relative amount of miR-122 in antagomiR-122 group (miR-122; quantitative PCR, 65 mg/kg intraperitoneally on three consecutive days, sacrificed at day 7, vs control antagomiRs, mean (standard deviation)): 0.13%+/−0.06%
